Reference: the NIST ThermoML archive (doi:10.1021/je3007666)

Experiment: relative permittivity at zero frequency (dimensionless); xn = mol fraction of the nth substance listed
Conditions: 100 kPa, Liquid, Dielectrometer

CC(C)CO [2-methyl-1-propanol] + CCCCO
relative permittivity at zero frequency
Conditions	288.15 K	293.15 K	298.15 K	303.15 K	308.15 K
x1 = 0.0505	19.03	18.3	17.59	16.92	16.26
x1 = 0.1011	19.05	18.31	17.61	16.93	16.27
x1 = 0.1496	19.06	18.33	17.62	16.94	16.28
x1 = 0.2001	19.08	18.34	17.63	16.95	16.29
x1 = 0.2488	19.1	18.36	17.65	16.97	16.31
x1 = 0.3011	19.12	18.38	17.66	16.98	16.32
x1 = 0.3497	19.14	18.4	17.68	16.99	16.33
x1 = 0.399	19.16	18.41	17.7	17.01	16.34
x1 = 0.4511	19.18	18.43	17.71	17.02	16.36
x1 = 0.5021	19.21	18.44	17.73	17.04	16.37
x1 = 0.5489	19.23	18.46	17.75	17.06	16.39
x1 = 0.6004	19.26	18.5	17.77	17.07	16.4
x1 = 0.6488	19.28	18.52	17.79	17.09	16.42
x1 = 0.6975	19.31	18.55	17.81	17.11	16.43
x1 = 0.751	19.34	18.57	17.83	17.13	16.45
x1 = 0.8004	19.37	18.6	17.86	17.15	16.46
x1 = 0.848	19.4	18.62	17.88	17.17	16.48
x1 = 0.8995	19.43	18.65	17.9	17.19	16.5
x1 = 0.9506	19.47	18.68	17.93	17.21	16.52
x1 = 1	19.51	18.71	17.96	17.23	16.53

CC(C)(C)O [2-methylpropan-2-ol] + CCC(C)O
relative permittivity at zero frequency
Conditions	288.15 K	293.15 K	298.15 K	303.15 K	308.15 K
x1 = 0.0511	18.35	17.39	16.47	15.62	14.8
x1 = 0.1003	18.24	17.25	16.35	15.46	14.64
x1 = 0.1512	18.11	17.13	16.22	15.31	14.47
x1 = 0.199	17.97	16.98	16.06	15.15	14.28
x1 = 0.2498	17.85	16.83	15.92	14.98	14.1
x1 = 0.3007	17.71	16.67	15.77	14.79	13.92
x1 = 0.35	17.55	16.54	15.6	14.62	13.75
x1 = 0.3997	17.42	16.36	15.44	14.44	13.54
x1 = 0.4502	17.25	16.19	15.27	14.25	13.34
x1 = 0.5011	17.09	16	15.09	14.05	13.14
x1 = 0.5497	16.89	15.83	14.9	13.84	12.92
x1 = 0.6007	16.7	15.64	14.72	13.62	12.7
x1 = 0.6511	16.5	15.42	14.5	13.41	12.47
x1 = 0.701	16.28	15.17	14.26	13.17	12.23
x1 = 0.7497	16.03	14.93	14.03	12.89	11.96
x1 = 0.8005	15.76	14.68	13.78	12.63	11.68
x1 = 0.8488	15.49	14.39	13.5	12.32	11.39
x1 = 0.9003	15.19	14.07	13.18	12.01	11.07
x1 = 0.9496	14.84	13.72	12.84	11.68	10.74
x1 = 1	14.49	13.38	12.49	11.34	10.4

CC(C)(C)O [2-methylpropan-2-ol] + CCCCO
relative permittivity at zero frequency
Conditions	288.15 K	293.15 K	298.15 K	303.15 K	308.15 K
x1 = 0.0501	18.96	18.21	17.49	16.81	16.12
x1 = 0.1012	18.93	18.16	17.42	16.68	15.97
x1 = 0.1503	18.85	18.04	17.29	16.53	15.81
x1 = 0.2003	18.75	17.92	17.15	16.37	15.62
x1 = 0.2497	18.61	17.79	16.99	16.19	15.44
x1 = 0.299	18.48	17.63	16.85	16.01	15.25
x1 = 0.349	18.36	17.5	16.69	15.83	15.07
x1 = 0.3993	18.25	17.35	16.53	15.65	14.87
x1 = 0.4505	18.13	17.22	16.38	15.45	14.63
x1 = 0.5001	18.01	17.06	16.19	15.25	14.42
x1 = 0.5511	17.89	16.91	16.01	15.02	14.15
x1 = 0.5998	17.74	16.73	15.82	14.79	13.89
x1 = 0.649	17.6	16.54	15.58	14.51	13.59
x1 = 0.7001	17.39	16.31	15.32	14.21	13.25
x1 = 0.7503	17.15	16.03	15	13.88	12.89
x1 = 0.8003	16.84	15.7	14.63	13.48	12.49
x1 = 0.8497	16.45	15.26	14.21	13.03	12.04
x1 = 0.899	15.96	14.77	13.71	12.53	11.55
x1 = 0.95	15.29	14.15	13.15	11.97	11
x1 = 1	14.49	13.38	12.49	11.34	10.4
